Structures are written as SMILES.

In one assay the test system is Dd2 strain of P. falciparum. Description: Activity against the Dd2 strain of P. falciparum (SYBR Green I, 72-h incubation). It is filed as cell-based. Conditions: Plasmodium falciparum, DD2, 72 h, read-out: EC^50 Dd2. How it is done:
The Dd2 strain of P. falciparum was cultured in complete medium (RPMI with L-glutamine, 4.3% heat-inactivated O-positive human serum, 2.08 mg/ml albumax, 0.013 mg/ml hypoxanthine, 1.17 mg/ml glucose, 0.18% NaHCO3, 0.031 M Hepes, 2.60 mM NaOH, and 0.043 mg/ml gentamicin) until the parasitemia reached 3-8%. Parasitemia was determined by checking at least 500 red blood cells from a Giemsa-stained blood smear. The Dd2 cultures along with tested O-positive red blood cells are centrifuged at room temperature at 2,000 rpm for 5 min using an Eppendorf centrifuge 581 OR with an A-4-81 rotor. The medium was aspirated off. For the compound screening, a parasite dilution at a 1% parasitemia and 1.0% hematocrit was created with screening medium (RPMI with L-glutamine, 4.16 mg/ml albumax II, 0.013 mg/ml hypoxanthine, 1.73 mg/ml glucose, 0.18% NaHCO3, 0.031M Hepes, 2.60 mM NaOH, and 0.043 mg/ml gentamicin). The suspension was gassed with 93% nitrogen, 4% carbon dioxide, and 3% oxygen and placed at 37° C. until needed. Using a liquid dispenser, 20 μl of screening medium was dispensed into 384-well, black, clear-bottom plates. With a PinTool, 100 nl of compounds dissolved in DMSO was transferred into the assay plates along with control compound (mefloquine). Next, 30 μl of the parasite suspension in screening medium was then dispensed into the assay plates such that the final parasitemia was 1%, and the final hematocrit was 1.0%. Final concentration of DMSO was 0.125%. Mefloquine at a final concentration of 20 μM and DMSO at a final concentration of 0.125% were used within the assay plates to serve as background and baseline controls, respectively. The assay plates were transferred to incubators (93% nitrogen, 4% carbon dioxide, and 3% oxygen during the 72-h incubation at 37° C.). Ten microliters of detection reagent consisting of 1 OX SYBR Green I (Invitrogen; supplied in 10,000× concentration) in lysis buffer (20 mM Tris-HCl, 5 mM EDTA, 0.16% Saponin wt/vol, 1.6% Triton X vol/vol) was dispensed into the assay plates. For optimal staining, the assay plates were left at room temperature for 24 h in the dark. The assay plates were read by using an Envision (PerkinElmer) reader, with 505 dichroic mirrors with 485-nm excitation and 530-nm emission settings, and the plate reads were from the bottom.
For the compound `COc1ccc2c3c([nH]c2c1)C(CO)N(C(=O)Nc1ccc(F)cc1)CC31CCN(Cc2cc(-c3ccccc3)on2)CC1` (stereo in doubt) [Compound 111, (R)-N-(4-fluorophenyl)-1′-(hydroxymethyl)-7′-methoxy-1-((5-phenylisoxazol-3-yl)methyl)-3′,9′-dihydrospiro [piperidine-4,4′-pyrido[3,4-b]indole]-2′(1′H)-carboxamide], the EC50 turned out to be 451 nM.

For the compound `COc1ccc2c3c([nH]c2c1)[C@H](CO)N(C(C)=O)CC31CCN(C(=O)Nc2ccccc2Cl)CC1` [Compound 1, (R)-2′-acetyl-N-(2-chlorophenyl)-1′-(hydroxymethyl)-7′ -methoxy-1′,2′,3′,9′-tetrahydrospiro [piperidine-4,4′-pyrido [3,4-b]indole]-1-carboxamide], the EC50 fell in the range of 214 to 345 nM.

Take `COc1ccc2c3c([nH]c2c1)C(C)(C)N(C(C)=O)CC31CCN(C(=O)Nc2ccccc2F)CC1` [Compound 2, 2′-acetyl-N-(2-fluorophenyl)-7′ -methoxy-1′,1′-dimethyl-1′,2′,3′,9′-tetrahydrospiro [piperidine-4,4′-pyrido[3,4-b]indole]-1-carboxamide]: the EC50 fell in the range of 120 to 303 nM.

With `COc1ccc2c3c([nH]c2c1)[C@H](CO)N(C(=O)C(F)(F)F)CC31CCN(C(=O)Nc2ccccc2F)CC1` [Compound 3, (R)-N-(2-fluorophenyl)-1′-(hydroxymethyl)-7′-methoxy-2′-(2,2,2-trifluoroacetyl)-1′,2′,3′,9′-tetrahydrospiro[piperidine-4,4′-pyrido[3,4-b]indole]-1-carboxamide], the EC50 worked out at 1610 nM.

Turning to `COc1ccc2c3c([nH]c2c1)[C@H](CO)N(C(C)=O)CC31CCNCC1` [Compound 4, (R)-1-(1′-(hydroxymethyl)-7′-methoxyspiro [piperidine-4,4′-pyrido[3,4-b]indol]-2′(1′H,3′H,9′H)-yl)ethanone], the EC50 came out at 10700 nM.

On to `COc1ccc2c3c(n(C)c2c1)[C@H](CO)N(C(C)=O)CC31CCN(C(=O)Nc2ccccc2F)CC1` [Compound 5, (R)-2′-acetyl-N-(2-fluorophenyl)-1′-(hydroxymethyl)-7′-methoxy-9′-methyl-1′,2′,3′,9′-tetrahydrospiro [piperidine-4,4′-pyrido[3,4-b]indole]-1-carboxamide], for which the EC50 came to 6480 nM.

On to `CNC[C@H]1c2[nH]c3cc(OC)ccc3c2C2(CCN(C(=O)Nc3ccccc3F)CC2)CN1C(C)=O` [Compound 6, (S)-2′-acetyl-N-(2-fluorophenyl)-7′-methoxy-1′-((methylamino)methyl)-1′,2′,3′,9′-tetrahydrospiro[piperidine-4,4′-pyrido[3,4-b]indole]-1-carboxamide], for which the EC50 fell in the range of 183 to 319 nM.

As to `COc1ccc2c3c([nH]c2c1)[C@H](CO[Si](C)(C)C(C)(C)C)N(C(C)=O)CC31CCN(C(=O)Nc2cccnc2)CC1` [Compound 7], the EC50 came to 1380 nM.

For `COc1ccc2c3c([nH]c2c1)[C@H](CO)N(C(C)=O)CC31CCN(C(=O)Nc2ccc(F)cc2)CC1` [Compound 8, (R)-2′-acetyl-N-(4-fluorophenyl)-1′-(hydroxymethyl)-7′ -methoxy-1′,2′,3′,9′-tetrahydrospiro[piperidine-4,4′-pyrido[3,4-b]indole]-1-carboxamide], the EC50 is 1770 nM.

Regarding `COc1ccc2c3c([nH]c2c1)[C@H](CO)N(C(=O)C(C)C)CC31CCN(C(=O)Nc2ccccc2F)CC1` [Compound 9], the EC50 stood at 2910 nM.

As to `COc1ccc2c3c([nH]c2c1)[C@H](CO)N(C(C)=O)CC31CCN(C(=O)Nc2ccc(Cl)cc2)CC1` [Compound 10], the EC50 worked out at 3380 nM.

As for `COc1ccc2c3c([nH]c2c1)C(C)(C)NCC31CCN(C(=O)OC(C)(C)C)CC1` [Compound 11], the EC50 amounted to 4430 nM.

For `COc1ccc2c3c([nH]c2c1)[C@H](CO)N(C(C)=O)CC31CCN(C(=O)Nc2cccc(Cl)c2)CC1` [Compound 13, (R)-2′-acetyl-N-(3-chlorophenyl)-1′-(hydroxymethyl)-7′-methoxy-1′,2′,3′,9′-tetrahydrospiro [piperidine-4,4′-pyrido[3,4-b]indole]-1-carboxamide], the EC50 fell in the range of 127 to 162 nM.

`COc1ccc2c3c([nH]c2c1)C(C)(C)N(C(C)=O)CC31CCN(C(=O)OC(C)(C)C)CC1` [Compound 14, tert-butyl 2′-acetyl-7′-methoxy-1′,1′-dimethyl-1′,2′,3′,9′-tetrahydrospiro [piperidine-4,4′-pyrido[3,4-b]indole]-1-carboxylate]: the EC50 was 415 nM.

On to `C=CCOC(=O)N1CC2(CCN(C(=O)Nc3ccccc3F)CC2)c2c([nH]c3cc(OC)ccc23)[C@@H]1CO` [Compound 16, (R)-allyl 1-((2-fluorophenyl)carbamoyl)-1′-(hydroxymethyl)-7′-methoxy-3′,9′-dihydrospiro[piperidine-4,4′-pyrido[3,4-b]indole]-2′(1′H)-carboxylate], for which the EC50 was 2400 nM.

Consider `COc1ccc2c3c(n(C)c2c1)[C@H](COC(C)=O)N(C(C)=O)CC31CCN(C(=O)Nc2ccccc2F)CC1` [Compound 17, (R)-(2′-acetyl-1-((2-fluorophenyl)carbamoyl)-7′-methoxy-9′-methyl-1′,2′,3′,9′-tetrahydrospiro[piperidine-4,4′-pyrido[3,4-b]indol]-1′-yl)methylacetate], for which the EC50 is 834 nM.

On to `C=CCOC(=O)N1CC2(CCN(C(=O)OC(C)(C)C)CC2)c2c([nH]c3cc(OC)ccc23)[C@@H]1CO[Si](C)(C)C(C)(C)C` [Compound 18, (R)-2′-allyl 1-tert-butyl 1′-(((tert-butyldimethylsilyl)oxy)methyl)-7′-methoxy-3′,9′-dihydrospiro[piperidine-4,4′-pyrido[3,4-b]indole]-1,2′(1′H)-dicarboxylate], for which the EC50 was 763 nM.

Take `COc1ccc2c3c([nH]c2c1)[C@H](CO[Si](C)(C)C(C)(C)C)N(C(C)=O)CC31CCN(CCc2ccccc2F)CC1` [Compound 19, (R)-1-(1′-(((tert-butyldimethylsilyl)oxy)methyl)-1-(2-fluorophenethyl)-7′-methoxyspiro[piperidine-4,4′-pyrido[3,4-b]indol]-2′(1′H,3′H,9′H)-yl)ethanone]: the EC50 was 1200 nM.

As for `CCC(=O)N1CC2(CCN(C(=O)Nc3ccccc3F)CC2)c2c([nH]c3cc(OC)ccc23)[C@@H]1CO` [Compound 20, (R)-N-(2-fluorophenyl)-1′-(hydroxymethyl)-7′-methoxy-2′-propionyl-1′,2′,3′,9′-tetrahydrospiro[piperidine-4,4′-pyrido[3,4-b]indole]-1-carboxamide], the EC50 stood at 620 nM.

Regarding `COc1ccc2c3c([nH]c2c1)[C@H](CO)N(C(C)=O)CC31CCN(Cc2ccccc2F)CC1` [Compound 21, (R)-1-(1-(2-fluorobenzyl)-1′-(hydroxymethyl)-7′-methoxyspiro[piperidine-4,4′-pyrido[3,4-b]indol]-2′(1′H,3′H,9′H)-yl)ethanone], the EC50 worked out at 4010 nM.

Turning to `COc1ccc2c3c([nH]c2c1)[C@H](CO[Si](C)(C)C(C)(C)C)N(C(=O)C(C)(C)C)CC31CCN(C(=O)Nc2ccccc2F)CC1` [Compound 22, (R)-1′-(((tert-butyldimethylsilyl)oxy)methyl)-N-(2-fluorophenyl)-7′-methoxy-2′-pivaloyl-l′,2′,3′,9′-tetrahydrospiro[piperidine-4,4′-pyrido[3,4-b]indole]-1-carboxamide], the EC50 was found to be 430 nM.

The assay is the same for the next values; noted with them: read-out: EC^50 Dd2.
For the compound `COc1ccc2c3c([nH]c2c1)[C@H](CO)N(C(=O)Cc1ccccc1)CC31CCN(C(=O)Nc2ccccc2F)CC1` [Compound 12], the EC50 is 246 to 291 nM.
